Patent US8258138B2, “Potassium channel blockers” (Xention Limited, priority 2008, dated 2012)

target: T1, human Kv1.3 (Homo sapiens, UniProt P22001); assay: Kv1.3 Autopatch electrophysiology (whole cell patch-clamp, inhibition of charge movement); assay type: cell-based; settings: compound at 1 μM; cells stably transfected with human Kv1.3; room temperature; total charge during step to +30 mV relative to control
T1 construct: expressed in transfected cells; host or cells: stably transfected cells grown in medium for CHO cells
T1 sequence (P22001 whole entry): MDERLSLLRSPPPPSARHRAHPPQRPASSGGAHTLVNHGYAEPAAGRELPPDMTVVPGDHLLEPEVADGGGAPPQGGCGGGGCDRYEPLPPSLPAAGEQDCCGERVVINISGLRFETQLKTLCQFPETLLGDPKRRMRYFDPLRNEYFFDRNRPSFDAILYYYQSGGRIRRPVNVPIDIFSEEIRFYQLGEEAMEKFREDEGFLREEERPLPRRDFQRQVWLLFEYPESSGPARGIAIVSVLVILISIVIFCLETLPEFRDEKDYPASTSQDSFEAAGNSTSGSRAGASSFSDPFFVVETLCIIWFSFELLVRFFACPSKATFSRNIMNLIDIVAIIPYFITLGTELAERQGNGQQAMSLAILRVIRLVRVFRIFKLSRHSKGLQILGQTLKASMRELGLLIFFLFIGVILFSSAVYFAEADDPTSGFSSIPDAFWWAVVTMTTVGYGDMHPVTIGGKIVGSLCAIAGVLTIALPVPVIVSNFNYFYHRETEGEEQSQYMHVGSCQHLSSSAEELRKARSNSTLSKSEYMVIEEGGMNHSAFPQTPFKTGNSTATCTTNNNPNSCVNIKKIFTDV
Experimental: Kv1.3 Autopatch Electrophysiology Method
Compounds were tested on these cells using the AutoPatch technology in whole cell mode.
The external bathing solution contained (in mM): 150 NaCl, 10 KCl, 1 MgCl2, 3 CaCl2, 10 HEPES, pH 7.4 with NaOH. Patch pipettes were filled with an electrode solution of composition (in mM): 100 K-Gluconate, 20 KCl, 1 MgCl2, 1 CaCl2, 10 HEPES, 11 EGTA, 5 ATP-Na2, 2 Glutathione pH 7.2 with KOH.
Compounds were dissolved in DMSO (100%) and made up in the external bather at a concentration of 1 μM immediately prior to use. All experiments were conducted at room temperature.
A cell suspension (10 ml), with a density of 6×10^6 cells, was aliquoted into a 15 ml centrifuge tube and stored at 4° C. before use. Prior to use a tube was taken and centrifuged at 1000 rpm for 4 mins at room temperature. The supernatant was then discarded, leaving a cell pellet at the bottom of the tube. The pellet was then resuspended using 1 ml of cold (4° C.), filtered (0.22 μm), 0.05% BSA/bather solution (0.05 g BSA/100 ml bather). The bottom of the tube was manually agitated followed by gentle tituration. The cell suspension was then placed in the AutoPatch™ temperature controlled cell-hotel at 14° C. and regularly titurated.
A length of Teflon capillary tubing was dipped into the cell suspension solution, and a column of fluid was taken up by negative pressure. The column of fluid was in electrically connectivity with a Ag/AgCl reference electrode. Borosilicate glass patch pipettes (from 1.5 mm OD, thin-walled filamented, GC150-TF capillary glass, Harvard) were pulled using a DMZ pipette puller (Zeitz Instruments), and were back-filled using the internal pipette solution, being careful that no bubbles remained at the tip or in the body of the pipette. Patch pipettes typically had resistances of 2.5-3.5 MΩ. Once filled, the pipette tip and a proportion of the shaft (˜15 mm) were dipped into Sigmacote (Sigma). The recording pipettes were placed in a multiwell array and mounted on the AutoPatch™ machine. Automated patch-clamping and drug-application was initiated by the operator, but thereafter AutoPatch.exe continued the experiment providing that pre-set conditions and criteria were satisfied.
Whole cell patch-clamp recordings were made using the AutoPatch™ rig, which incorporated an EPC9 or EPC10 amplifier (HEKA, Germany) under control of Pulse software (v8.54 or v8.76, HEKA, Germany), a cell applicator, automated drug application system (DAS), valve controller (VF1) and a suction device all at room temperature. This equipment was completely under the control of AutoPatch.exe and operator intervention was only made when there was a requirement to refill the bather reservoirs or to prevent the loss of a cell due to a technical error.
Cells were continuously perfused with external solution at a flow rate of ˜2 ml/minute.
Electrophysiology voltage-step protocols and analysis of data was performed as follows. Data were sampled at 5 kHz, and filtered with a −3 dB bandwidth of 2.5 kHz. Cells were held at a voltage of −80 mV. Currents were evoked by a voltage step to +30 mV for 500 ms in duration applied every 15 s. Online analysis of the hKv1.3 current during the application of compounds was performed by the Pulse (v8.54 or v8.76, HEKA, Germany), Excel (Microsoft, USA) and AutoPatch™ software, with the total charge measured during the whole of voltage step. Inhibition of charge movement in the presence of drug was calculated relative to control.

Q: For “1-Methyl-1H-imidazole-4-sulfonic acid benzyl-[4-(3-phenyl-piperidine-1-carbonyl)-phenyl]-amide [Example 64]”, which hKv1.3 % inh. is on record?
A: 86%

Q: How did the hKv1.3 % inh. turn out when `CN(C)S(=O)(=O)N(Cc1ccccc1)c1ccc(C(=O)N2CCN(c3ccccc3C#N)CC2)cc1` [Example 5, N-Benzyl-N′N′-dimethyl-N-{4-[4-(2-cyano-phenyl)-piperazine-1-carbonyl]-phenyl}-sulfamide] was run?
A: 42%

Q: Which hKv1.3 % inh. does the source give for `CN(C)S(=O)(=O)N(Cc1ccccc1)c1ccc(C(=O)N2CCC(OCc3ccccc3)C2)cc1` (stereo not shown) [Example 70, N-Benzyl-N′N′-dimethyl-N-[4-(3-benzyloxy-pyrrolidine-1-carbonyl)-phenyl]-sulfamide] here?
A: 26%

same assay, conditions: compound at 1 μM; cells stably transfected with human Kv1.3; room temperature; total charge during step to +30 mV relative to control; read-out: hKv1.3 % inh.

Q: With `N#Cc1ccc(CN(c2ccc(C(=O)N3CCN(c4ccccc4)CC3)cc2)S(=O)(=O)c2ccccc2)cc1` [Example 2, N-(4-Cyano-benzyl)-N-[4-(4-phenyl-piperazine-1-carbonyl)-phenyl]-benzenesulfonamide] as the compound, how does the inhibition at 1 µM read?
A: 76%

Q: For `CN(C)S(=O)(=O)N(Cc1ccccc1)c1ccc(C(=O)N2CCOC(c3ccccc3)C2)cc1F` (stereo not shown) [Example 73, N-Benzyl-N-[2-fluoro-4-(2-phenyl-morpholine-4-carbonyl)-phenyl]-N′,N′-dimethylsulfamide], which inhibition at 1 µM is on record?
A: 67%

Q: How did the inhibition at 1 µM turn out when `O=C(c1ccc(N(Cc2ccccc2)S(=O)(=O)c2ccccc2)cc1)N1CCCCC1` [Example 3, N-Benzyl-N-[4-(piperidine-1-carbonyl)-phenyl]-benzenesulfonamide] was run?
A: 94%

Q: For `CN1CCN(C(=O)c2ccc(N(Cc3ccccc3)S(=O)(=O)c3cn(C)cn3)cc2)CC1c1ccccc1` (stereo not shown) [Example 83, 1-Methyl-1H-imidazole-4-sulfonic acid benzyl-[4-(4-methyl-3-phenyl-piperazine-1-carbonyl)-phenyl]-amide], which inhibition at 1 µM is on record?
A: 64%

Q: How did the inhibition at 1 µM turn out when `Cn1nccc1S(=O)(=O)N(Cc1ccccc1)c1ccc(C(=O)N2CCNC(c3ccccc3)C2)cc1` (stereo not shown) [Example 89, 2-Methyl-2H-pyrazole-3-sulfonic acid benzyl-[4-(3-phenyl-piperazine-1-carbonyl)-phenyl]-amide] was run?
A: 61%

Q: Which inhibition at 1 µM does the source give for `CC1CCCN1C(=O)c1ccc(N(Cc2ccc(Cl)cc2)S(=O)(=O)c2cn(C)cn2)cc1` (stereo not shown) [Example 98, 1-Methyl-1H-imidazole-4-sulfonic acid (4-chloro-benzyl)-[4-(2-methyl-pyrrolidine-1-carbonyl)-phenyl]-amide] here?
A: 51%

Q: For `O=C(c1ccc(N(Cc2cccc(OC(F)(F)F)c2)S(=O)(=O)c2ccccc2)cc1)N1CCN(c2ccccc2)CC1` [Example 37, N-[4-(4-Phenyl-piperazine-1-carbonyl)-phenyl]-N-(3-trifluoromethoxy-benzyl)-benzenesulfonamide], which inhibition at 1 µM is on record?
A: 46%

Q: With `Cc1ccc(C2CCCN(C(=O)c3ccc(N(Cc4ccc(Cl)cc4)S(=O)(=O)c4ccccc4)cc3)C2)cc1` (stereo not shown) [Example 4, N-(4-Chloro-benzyl)-N-[4-(3-p-tolyl-piperidine-1-carbonyl)-phenyl]-benzenesulfonamide] as the compound, how does the inhibition at 1 µM read?
A: 67%

Q: Which inhibition at 1 µM does the source give for `O=C(c1ccc(N(Cc2ccccc2)S(=O)(=O)c2ccccc2)cc1)N1CCC(O)(c2ccccc2)CC1` [Example 58, N-Benzyl-N-[4-(4-hydroxy-4-phenyl-piperidine-1-carbonyl)-phenyl]benzenesulfonamide] here?
A: 81%

Q: Which inhibition at 1 µM does the source give for `Cn1cnc(S(=O)(=O)N(Cc2ccccc2)c2ccc(C(=O)N3CCCC(C(F)(F)F)C3)cc2)c1` (stereo not shown) [Example 78, 1-Methyl-1H-imidazole-4-sulfonic acid benzyl-[4-(3-trifluoromethyl-piperidine-1-carbonyl)-phenyl]-amide] here?
A: 74%

Q: Which inhibition at 1 µM does the source give for `CC1CCCN(C(=O)c2ccc(N(Cc3ccc(Cl)cc3)S(=O)(=O)c3cn(C)cn3)cc2)C1` (stereo not shown) [Example 92, 1-Methyl-1H-imidazole-4-sulfonic acid (4-chloro-benzyl)-[4-(3-methyl-piperidine-1-carbonyl)-phenyl]-amide] here?
A: 61%

Q: Which inhibition at 1 µM does the source give for `Cc1ncc(S(=O)(=O)N(Cc2ccccc2)c2ccc(C(=O)N3CCN(c4ccccc4)CC3)cc2)n1C` [Example 47, 2,3-Dimethyl-3H-imidazole-4-sulfonic acid benzyl-[4-(4-phenyl-piperazine-1-carbonyl)-phenyl]-amide] here?
A: 50%

Q: Which inhibition at 1 µM does the source give for `COc1cccc(CN(c2ccc(C(=O)N3CCN(c4ccccc4)CC3)cc2)S(=O)(=O)c2cn(C)cn2)c1` [Example 45, 1-Methyl-1H-imidazole-4-sulfonic acid (3-methoxy-benzyl)-[4-(4-phenyl-piperazine-1-carbonyl)-phenyl]-amide] here?
A: 54%

Q: Which inhibition at 1 µM does the source give for `CC1CCN(C(=O)c2ccc(N(Cc3ccc(Cl)cc3)S(=O)(=O)c3cn(C)cn3)cc2)C1` (stereo not shown) [Example 99, 1-Methyl-1H-imidazole-4-sulfonic acid (4-chloro-benzyl)-[4-(3-methyl-pyrrolidine-1-carbonyl)-phenyl]-amide] here?
A: 52%

Q: For `Cc1ccc(CN(c2ccc(C(=O)N3CCCC(C)C3)cc2)S(=O)(=O)c2cn(C)cn2)cc1` (stereo not shown) [Example 95, 1-Methyl-1H-imidazole-4-sulfonic acid (4-methyl-benzyl)-[4-(3-methyl-piperidine-1-carbonyl)-phenyl]-amide], which inhibition at 1 µM is on record?
A: 51%

Q: Which inhibition at 1 µM does the source give for `CN(C)S(=O)(=O)N(Cc1ccccc1)c1ccc(C(=O)N2CCOC(c3ccccc3)C2)cc1` (stereo not shown) [Example 6, N-Benzyl-N-[4-(2-phenyl-morpholine-4-carbonyl)-phenyl]-N′,N′-dimethylsulfamide] here?
A: 60%

Q: For `Cc1noc(C2CCCN(C(=O)c3ccc(N(Cc4ccc(Cl)cc4)S(=O)(=O)c4cn(C)cn4)cc3)C2)n1` (stereo not shown) [Example 60, 1-Methyl-1H-imidazole-4-sulfonic acid (4-chloro-benzyl)-{4-[3-(3-methyl-[1,2,4]oxadiazol-5-yl)-piperidine-1-carbonyl]-phenyl}-amide], which inhibition at 1 µM is on record?
A: 83%

Q: With `Cn1cnc(S(=O)(=O)N(Cc2ccccc2)c2ccc(C(=O)N3CCN(CC4CCCCC4)CC3)cc2)c1` [Example 76, 1-Methyl-1H-imidazole-4-sulfonic acid benzyl-[4-(4-cyclohexylmethyl-piperazine-1-carbonyl)-phenyl]-amide] as the compound, how does the inhibition at 1 µM read?
A: 45%

Q: With `Cc1ccccc1CN(c1ccc(C(=O)N2CCN(c3ccccc3)CC2)cc1)S(=O)(=O)c1ccccc1` [Example 34, N-(2-Methyl-benzyl)-N-[4-(4-phenyl-piperazine-1-carbonyl)-phenyl]-benzenesulfonamide] as the compound, how does the inhibition at 1 µM read?
A: 85%

Q: For `CN1CCN(C(=O)c2ccc(N(Cc3ccccc3)S(=O)(=O)c3cn(C)cn3)cc2)CC1` [Example 7, 1-Methyl-1H-imidazole-4-sulfonic acid benzyl-[4-(4-methyl-piperazine-1-carbonyl)-phenyl]-amide], which inhibition at 1 µM is on record?
A: 38%

Q: For `Cn1cnc(S(=O)(=O)N(Cc2ccccc2)c2ccc(C(=O)N3CCN(C(=O)OC(C)(C)C)C(c4ccccc4)C3)cc2)c1` (stereo not shown) [Example 81, 4-{4-[Benzyl-(1-methyl-1H-imidazole-4-sulfonyl)-amino]-benzoyl}-2-phenyl-piperazine-1-carboxylic acid tert-butyl ester], which inhibition at 1 µM is on record?
A: 57%

Q: How did the inhibition at 1 µM turn out when `CC1CCCN(C(=O)c2ccc(N(Cc3ccc(F)cc3)S(=O)(=O)c3cn(C)cn3)cc2)C1` (stereo not shown) [Example 94, 1-Methyl-1H-imidazole-4-sulfonic acid (4-fluoro-benzyl)-[4-(3-methyl-piperidine-1-carbonyl)-phenyl]-amide] was run?
A: 52%
